Among the data in ChEMBL document CHEMBL4261542, “Recent advances in combretastatin based derivatives and prodrugs as antimitotic agents” (Medchemcomm, 2017) are IC50 values, retold here.

Bounds are passed on as bounds.

Broadly, the IC50 is the point on the concentration scale where inhibition reaches its midpoint. A lower IC50 goes with higher potency.

Assay [1] concerns the target Tubulin. Nature of the assay: Inhibition of tubulin polymerization (unknown origin). In kind it is protein-complex assay, Homo sapiens.
The test system of assay [2] is A549. Nature of the assay: Antiproliferative activity against human A549 cells. The assay is classed as functional, cell-based.
Assay [3] deals with MCF7. Nature of the assay: Antiproliferative activity against human MCF7 cells. In kind it is functional, cell-based.
The subject of assay [4] is DU-145. Nature of the assay: Antiproliferative activity against human DU145 cells after 48 hrs by MTT assay. The assay is classed as functional, cell-based. The settings on record: DU-145, 48 h. For orientation: Tetrazolium assays rely on reduction of a dye to a coloured formazan, in cell work by metabolically active cells.
Assay [5] is described as follows: Inhibition of [3H]colchicine binding to bovine brain tubulin after 20 mins by spectrophotometric analysis. Set-up: species or system Bos taurus.
Assay [6] concerns KB. Nature of the assay: Antiproliferative activity against human KB cells after 72 hrs by MTT assay. In kind it is functional, cell-based.
The subject of assay [7] is L929. Nature of the assay: Cytotoxicity against mouse L929 cells after 72 hrs by MTT assay. In kind it is cell-based. Conditions: L929, 72 h.
Assay [8] concerns HT-1080. Nature of the assay: Antiproliferative activity against human HT1080 cells after 72 hrs by MTT assay. Conditions: HT-1080, 72 h. In kind it is functional, cell-based.
Assay [9] relates to SGC-7901. Nature of the assay: Antiproliferative activity against human SGC7901 cells after 72 hrs by MTT assay. In kind it is functional, cell-based. The settings on record: SGC-7901, 72 h.

On to `COc1ccc(N2C(=O)CSC2c2cc(OC)c(OC)c(OC)c2)cc1` (stereo not given), for which the IC50 in assay [1] was determined as 2.12 µM. Take `COc1cc(/C=C(\c2cc(OC)c(OC)c(OC)c2)c2nc3cc(OC)c(OC)cc3o2)ccc1O`: the IC50 in assay [2] and in assay [3] was below 0.1 µM each time. `COc1cc(/C=C(\c2cc(OC)c(OC)c(OC)c2)c2nnc(-c3cc(OC)c(OC)c(OC)c3)o2)ccc1O` registered an IC50 in assay [4] of 0.1 µM. With `CCOc1ccc(-c2nccn2-c2cc(OC)c(OC)c(OC)c2)cc1Cl`, in [5], the IC50 was 0.87 µM.

Regarding `CCOc1ccc(-c2cc(C)nn2-c2cc(OC)c(OC)c(OC)c2)cc1Cl`, the IC50 in [1] is 1.7 µM.

As to `COc1cc(-n2c(C)ccc2-c2cc(OC)c(OC)c(OC)c2)ccc1N`, the IC50 in assay [6] came out at 0.045 µM; in [7], 30.1 µM; in assay [8], 0.07 µM; in assay [9] it was 0.39 µM.
